From US20250262201A1, “COMPOUNDS AND METHODS USEFUL FOR STABILIZING PHENYLALANINE HYDROXYLASE MUTATIONS” (Agios Pharmaceuticals, Inc., priority 2022, published 2025)

Biological target: T1, human PAH with the R408W mutation (Homo sapiens, UniProt P00439, R408W)
T1 construct: expressed in transfected cells
T1 sequence (P00439 1-452 R408W): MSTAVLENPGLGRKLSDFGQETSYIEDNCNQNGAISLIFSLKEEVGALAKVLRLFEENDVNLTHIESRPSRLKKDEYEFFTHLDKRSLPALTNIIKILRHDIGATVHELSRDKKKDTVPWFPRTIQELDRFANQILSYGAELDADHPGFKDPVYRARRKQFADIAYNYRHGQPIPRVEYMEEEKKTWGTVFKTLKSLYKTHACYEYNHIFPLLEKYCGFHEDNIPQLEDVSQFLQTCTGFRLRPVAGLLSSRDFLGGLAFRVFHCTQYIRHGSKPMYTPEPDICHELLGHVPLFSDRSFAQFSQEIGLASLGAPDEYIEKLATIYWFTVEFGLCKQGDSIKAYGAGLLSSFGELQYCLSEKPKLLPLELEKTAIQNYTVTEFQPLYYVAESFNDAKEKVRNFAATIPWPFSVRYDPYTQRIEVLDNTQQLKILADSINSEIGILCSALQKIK
Experiment: Cell Based Phenylalanine Flux Assay
Settings: A375 cells expressing human R408W PAH; 24 hrs compound incubation; 13C-Tyrosine by LC-MS; average where tested multiple times; read-out: AC50

Structure (SMILES): CC(C)(F)c1ncc(C(=O)N2CCc3[nH]cnc3C2c2ccc3ccccc3n2)s1 (stereo in doubt) [Example 16, (S)-(2-(2-fluoropropan-2-yl)thiazol-5-yl)(4-(quinolin-2-yl)-6,7-dihydro-1H-imidazo[4,5-c]pyridin-5(4H)-yl)methanone]
- AC50: > 5000 nM

Structure (SMILES): CC(C)(F)c1ncc(C(=O)N2CCc3[nH]cnc3C2c2ccc3ccccc3n2)o1 (stereo in doubt) [Example 17, (R)-(2-(2-fluoropropan-2-yl)oxazol-5-yl)(4-(quinolin-2-yl)-6,7-dihydro-1H-imidazo[4,5-c]pyridin-5(4H)-yl)methanone]
- AC50: < 500 nM

Structure (SMILES): Fc1ccc(-c2nnc(N3CCc4[nH]cnc4C3c3ccc4ccccc4n3)o2)cc1 (stereo in doubt) [Example 19, (S)-2-(4-fluorophenyl)-5-(4-(quinolin-2-yl)-6,7-dihydro-1H-imidazo[4,5-c]pyridin-5(4H)-yl)-1,3,4-oxadiazole]
- AC50: > 5000 nM

Structure (SMILES): Fc1ccc(-c2nnc(N3CCc4[nH]cnc4C3c3ccc4ccccc4n3)o2)cc1 (stereo in doubt) [Example 20, (R)-2-(4-fluorophenyl)-5-(4-(quinolin-2-yl)-6,7-dihydro-1H-imidazo[4,5-c]pyridin-5(4H)-yl)-1,3,4-oxadiazole]
- AC50: 500 to 1000 nM

Structure (SMILES): Cc1nc(C(C)(C)F)oc1C(=O)N1CCc2[nH]cnc2C1c1ccc2ccccc2n1 (stereo in doubt) [Example 21, (S)-(2-(2-fluoropropan-2-yl)-4-methyloxazol-5-yl)(4-(quinolin-2-yl)-6,7-dihydro-1H-imidazo[4,5-c]pyridin-5(4H)-yl)methanone]
- AC50: > 5000 nM

Structure (SMILES): Cc1nc(C(C)(C)F)oc1C(=O)N1CCc2[nH]cnc2C1c1ccc2ccccc2n1 (stereo in doubt) [Example 22, (R)-(2-(2-fluoropropan-2-yl)-4-methyloxazol-5-yl)(4-(quinolin-2-yl)-6,7-dihydro-1H-imidazo[4,5-c]pyridin-5(4H)-yl)methanone]
- AC50: < 500 nM

Structure (SMILES): O=C(c1nnc(-c2c(F)cccc2F)o1)N1CCc2[nH]cnc2C1c1ccc2ccccc2n1 (stereo in doubt) [Example 23, (R)-(5-(2,6-difluorophenyl)-1,3,4-oxadiazol-2-yl)(4-(quinolin-2-yl)-6,7-dihydro-1H-imidazo[4,5-c]pyridin-5(4H)-yl)methanone]
- AC50: < 500 nM

Structure (SMILES): Cc1nc(-c2cnn(C)c2)oc1C(=O)N1CCc2[nH]cnc2C1c1ccc2ccccc2n1 (stereo in doubt) [Example 25, (S)-(4-methyl-2-(1-methyl-1H-pyrazol-4-yl)oxazol-5-yl)(4-(quinolin-2-yl)-6,7-dihydro-1H-imidazo[4,5-c]pyridin-5(4H)-yl)methanone]
- AC50: > 5000 nM

Structure (SMILES): CC(C)(O)c1nnc(C(=O)N2CCc3[nH]cnc3C2c2ccc3ccccc3n2)o1 (stereo in doubt) [Example 27, (S)-(5-(2-hydroxypropan-2-yl)-1,3,4-oxadiazol-2-yl)(4-(quinolin-2-yl)-6,7-dihydro-1H-imidazo[4,5-c]pyridin-5(4H)-yl)methanone]
- AC50: > 5000 nM

Structure (SMILES): CC(C)(O)c1nnc(C(=O)N2CCc3[nH]cnc3C2c2ccc3ccccc3n2)o1 (stereo in doubt) [Example 28, (R)-(5-(2-hydroxypropan-2-yl)-1,3,4-oxadiazol-2-yl)(4-(quinolin-2-yl)-6,7-dihydro-1H-imidazo[4,5-c]pyridin-5(4H)-yl)methanone]
- AC50: 1000 to 5000 nM

Structure (SMILES): FC(F)(F)c1cnc(N2CCc3[nH]cnc3C2c2ccc3ccccc3n2)nc1 (stereo in doubt) [Example 29, (R)-2-(5-(5-(trifluoromethyl)pyrimidin-2-yl)-4,5,6,7-tetrahydro-1H-imidazo[4,5-c]pyridin-4-yl)quinoline]
- AC50: < 500 nM

Structure (SMILES): FC(F)(F)c1cnc(N2CCc3[nH]cnc3C2c2ccc3ccccc3n2)nc1 (stereo in doubt) [Example 30, (S)-2-(5-(5-(trifluoromethyl)pyrimidin-2-yl)-4,5,6,7-tetrahydro-1H-imidazo[4,5-c]pyridin-4-yl)quinoline]
- AC50: > 5000 nM

Structure (SMILES): Cc1nc(-c2ccccn2)oc1C(=O)N1CCc2[nH]cnc2C1c1ccc2ccccc2n1 (stereo in doubt) [Example 31, (R)-(4-methyl-2-(pyridin-2-yl)oxazol-5-yl)(4-(quinolin-2-yl)-6,7-dihydro-1H-imidazo[4,5-c]pyridin-5(4H)-yl)methanone]
- AC50: 500 to 1000 nM

Structure (SMILES): Cc1nc(-c2ccccn2)oc1C(=O)N1CCc2[nH]cnc2C1c1ccc2ccccc2n1 (stereo in doubt) [Example 32, (S)-(4-methyl-2-(pyridin-2-yl)oxazol-5-yl)(4-(quinolin-2-yl)-6,7-dihydro-1H-imidazo[4,5-c]pyridin-5(4H)-yl)methanone]
- AC50: > 5000 nM

Structure (SMILES): O=C(c1nnc(-c2ccc(F)cn2)o1)N1CCc2[nH]cnc2C1c1ccc2ccccc2n1 (stereo in doubt) [Example 33, (R)-(5-(5-fluoropyridin-2-yl)-1,3,4-oxadiazol-2-yl)(4-(quinolin-2-yl)-6,7-dihydro-1H-imidazo[4,5-c]pyridin-5(4H)-yl)methanone]
- AC50: 1000 to 5000 nM

Structure (SMILES): O=C(c1nnc(-c2ccc(F)cn2)o1)N1CCc2[nH]cnc2C1c1ccc2ccccc2n1 (stereo in doubt) [Example 34, (S)-(5-(5-fluoropyridin-2-yl)-1,3,4-oxadiazol-2-yl)(4-(quinolin-2-yl)-6,7-dihydro-1H-imidazo[4,5-c]pyridin-5(4H)-yl)methanone]
- AC50: > 5000 nM

Structure (SMILES): Cc1nc(C2CC2)oc1C(=O)N1CCc2[nH]cnc2C1c1ccc2ccccc2n1 (stereo in doubt) [Example 35, (R)-(2-cyclopropyl-4-methyloxazol-5-yl)(4-(quinolin-2-yl)-6,7-dihydro-1H-imidazo[4,5-c]pyridin-5(4H)-yl)methanone]
- AC50: < 500 nM

Structure (SMILES): Cc1nc(C2CC2)oc1C(=O)N1CCc2[nH]cnc2C1c1ccc2ccccc2n1 (stereo in doubt) [Example 36, (S)-(2-cyclopropyl-4-methyloxazol-5-yl)(4-(quinolin-2-yl)-6,7-dihydro-1H-imidazo[4,5-c]pyridin-5(4H)-yl)methanone]
- AC50: > 5000 nM

Structure (SMILES): O=C(c1ocnc1C(F)(F)F)N1CCc2[nH]cnc2C1c1ccc2ccccc2n1 (stereo in doubt) [Example 37, (R)-(4-(quinolin-2-yl)-6,7-dihydro-1H-imidazo[4,5-c]pyridin-5(4H)-yl)(4-(trifluoromethyl)oxazol-5-yl)methanone]
- AC50: < 500 nM

Structure (SMILES): O=C(c1ocnc1C(F)(F)F)N1CCc2[nH]cnc2C1c1ccc2ccccc2n1 (stereo in doubt) [Example 38, (S)-(4-(quinolin-2-yl)-6,7-dihydro-1H-imidazo[4,5-c]pyridin-5(4H)-yl)(4-(trifluoromethyl)oxazol-5-yl)methanone]
- AC50: 1000 to 5000 nM

Structure (SMILES): CC(F)(F)c1ncc(C(=O)N2CCc3[nH]cnc3C2c2ccc3ccccc3n2)s1 (stereo in doubt) [Example 39, (R)-(2-(1,1-difluoroethyl)thiazol-5-yl)(4-(quinolin-2-yl)-6,7-dihydro-1H-imidazo[4,5-c]pyridin-5(4H)-yl)methanone]
- AC50: 500 to 1000 nM

Structure (SMILES): CC(F)(F)c1ncc(C(=O)N2CCc3[nH]cnc3C2c2ccc3ccccc3n2)s1 (stereo in doubt) [Example 40, (S)-(2-(1,1-difluoroethyl)thiazol-5-yl)(4-(quinolin-2-yl)-6,7-dihydro-1H-imidazo[4,5-c]pyridin-5(4H)-yl)methanone]
- AC50: 1000 to 5000 nM

Structure (SMILES): O=C(CC1CC1)N1CCc2[nH]cnc2C1c1ccc2ccccc2n1 (stereo in doubt) [Example 41, (R)-2-cyclopropyl-1-(4-(quinolin-2-yl)-6,7-dihydro-1H-imidazo[4,5-c]pyridin-5(4H)-yl)ethanone]
- AC50: < 500 nM

Structure (SMILES): O=C(CC1CC1)N1CCc2[nH]cnc2C1c1ccc2ccccc2n1 (stereo in doubt) [Example 42, (S)-2-cyclopropyl-1-(4-(quinolin-2-yl)-6,7-dihydro-1H-imidazo[4,5-c]pyridin-5(4H)-yl)ethanone]
- AC50: 1000 to 5000 nM

Structure (SMILES): O=C(c1oc(-c2ccccn2)nc1C1CC1)N1CCc2[nH]cnc2C1c1ccc2ccccc2n1 (stereo in doubt) [Example 43, (R)-(4-cyclopropyl-2-(pyridin-2-yl)oxazol-5-yl)(4-(quinolin-2-yl)-6,7-dihydro-1H-imidazo[4,5-c]pyridin-5(4H)-yl)methanone]
- AC50: < 500 nM

Structure (SMILES): O=C(c1oc(-c2ccccn2)nc1C1CC1)N1CCc2[nH]cnc2C1c1ccc2ccccc2n1 (stereo in doubt) [Example 44, (S)-(4-cyclopropyl-2-(pyridin-2-yl)oxazol-5-yl)(4-(quinolin-2-yl)-6,7-dihydro-1H-imidazo[4,5-c]pyridin-5(4H)-yl)methanone]
- AC50: 1000 to 5000 nM

Structure (SMILES): O=C(c1nnc(-c2ccccn2)o1)N1CCc2[nH]cnc2C1c1ccc2ccccc2n1 (stereo in doubt) [Example 45, (R)-(5-(pyridin-2-yl)-1,3,4-oxadiazol-2-yl)(4-(quinolin-2-yl)-6,7-dihydro-1H-imidazo[4,5-c]pyridin-5(4H)-yl)methanone]
- AC50: < 500 nM

Structure (SMILES): O=C(c1nnc(-c2ccccn2)o1)N1CCc2[nH]cnc2C1c1ccc2ccccc2n1 (stereo in doubt) [Example 46, (S)-(5-(pyridin-2-yl)-1,3,4-oxadiazol-2-yl)(4-(quinolin-2-yl)-6,7-dihydro-1H-imidazo[4,5-c]pyridin-5(4H)-yl)methanone]
- AC50: > 5000 nM

Structure (SMILES): Cn1cc(-c2nnc(C(=O)N3CCc4[nH]cnc4C3c3ccc4ccccc4n3)o2)cn1 (stereo in doubt) [Example 47, (R)-(5-(1-methyl-1H-pyrazol-4-yl)-1,3,4-oxadiazol-2-yl)(4-(quinolin-2-yl)-6,7-dihydro-1H-imidazo[4,5-c]pyridin-5(4H)-yl)methanone]
- AC50: 500 to 1000 nM
